Legend:
[1] = target: glucose oxidase (GOD, EC 1.1.3.4.) (Aspergillus niger, UniProt P13006); assay: GOD biosensor: oxygen decrease during glucose oxidation in hydrolysed milk with added antibiotic; type: biochemical; conditions: benzylpenicillin concentration 1000 ppb in milk, glucose and galactose 1.4 mM, 38° C.
[2] = target: galactose oxidase (GAO, EC 1.1.3.9) (Gibberella zeae, UniProt P0CS93); type: biochemical; conditions: GAO biosensor, benzylpenicillin concentration 1000 ppb in milk, glucose and galactose 1.4 mM, 38° C.
galactose oxidase (GAO, EC 1.1.3.9), sequence (P0CS93 42-680 limits assumed): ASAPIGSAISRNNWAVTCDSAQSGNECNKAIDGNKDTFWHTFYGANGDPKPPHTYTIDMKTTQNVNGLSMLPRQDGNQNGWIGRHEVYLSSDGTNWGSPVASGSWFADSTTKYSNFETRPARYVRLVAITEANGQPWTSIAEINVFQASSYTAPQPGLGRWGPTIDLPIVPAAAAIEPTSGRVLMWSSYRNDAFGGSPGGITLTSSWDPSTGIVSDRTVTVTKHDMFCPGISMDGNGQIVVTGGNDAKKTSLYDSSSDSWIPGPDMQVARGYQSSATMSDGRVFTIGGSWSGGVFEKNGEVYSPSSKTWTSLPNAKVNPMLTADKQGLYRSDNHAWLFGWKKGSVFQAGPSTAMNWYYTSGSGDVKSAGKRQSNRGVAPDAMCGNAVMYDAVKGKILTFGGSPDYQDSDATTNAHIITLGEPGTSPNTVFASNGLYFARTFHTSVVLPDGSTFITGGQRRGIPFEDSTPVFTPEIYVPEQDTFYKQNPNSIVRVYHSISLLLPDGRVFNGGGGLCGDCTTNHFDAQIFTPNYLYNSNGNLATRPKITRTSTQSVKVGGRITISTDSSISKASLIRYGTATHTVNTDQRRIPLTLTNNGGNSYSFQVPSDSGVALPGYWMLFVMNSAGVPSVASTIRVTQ

glucose oxidase (GOD, EC 1.1.3.4.), sequence (P13006 17-605, species assumed): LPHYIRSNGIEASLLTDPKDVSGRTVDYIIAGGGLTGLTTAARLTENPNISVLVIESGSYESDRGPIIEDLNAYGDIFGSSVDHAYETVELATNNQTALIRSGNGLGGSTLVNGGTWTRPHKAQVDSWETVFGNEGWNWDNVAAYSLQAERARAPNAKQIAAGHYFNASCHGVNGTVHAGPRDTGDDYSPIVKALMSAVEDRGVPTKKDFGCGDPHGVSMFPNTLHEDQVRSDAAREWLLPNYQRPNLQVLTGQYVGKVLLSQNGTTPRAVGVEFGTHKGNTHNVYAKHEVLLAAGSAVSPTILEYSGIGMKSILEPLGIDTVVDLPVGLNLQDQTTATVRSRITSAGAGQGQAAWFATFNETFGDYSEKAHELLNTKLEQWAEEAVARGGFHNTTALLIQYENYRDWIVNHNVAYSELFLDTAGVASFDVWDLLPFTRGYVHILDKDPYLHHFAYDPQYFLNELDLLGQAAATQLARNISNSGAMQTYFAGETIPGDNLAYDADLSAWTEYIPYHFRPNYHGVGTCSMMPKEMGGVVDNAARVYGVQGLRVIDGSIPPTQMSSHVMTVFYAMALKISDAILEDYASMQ

**Q.** What does the source list for `CC1(C)S[C@@H]2[C@H](NC(=O)Cc3ccccc3)C(=O)N2[C@H]1C(=O)O` [benzylpenicillin]?
**A.** steady state parameter A ([1]; antibiotics-free milk A=0.159): 0.141; kinetic parameter B ([1]; antibiotics-free milk B=222.2): 146.0 s⁻¹; steady state parameter A ([2]; antibiotics-free milk A=0.640): 0.435; kinetic parameter B ([2]; antibiotics-free milk B=53.0): 97.8 s⁻¹

Reference: patent US20130011528A1 (priority 2010, published 2013)
